Test results from patent US12486253B2, “Therapeutics for the degradation of mutant BRAF” (C4 THERAPEUTICS, INC., priority 2021, dated 2025).
Where two headings read alike, the source gives them in different places.

Molecular target: BRAF V600E (Homo sapiens, UniProt P15056, V600E)
Test: HiBiT cellular BRAF^V600E degradation assay
Format: cell-based
Conditions: for DC50: concentration at which 50% of total cellular BRAF^V600E is degraded; for Emax: read-out: HiBit 24 h Emax
[1] = A375.10 cells, 24 h, residual protein remaining in the cell

BRAF V600E, sequence (P15056 whole entry V600E): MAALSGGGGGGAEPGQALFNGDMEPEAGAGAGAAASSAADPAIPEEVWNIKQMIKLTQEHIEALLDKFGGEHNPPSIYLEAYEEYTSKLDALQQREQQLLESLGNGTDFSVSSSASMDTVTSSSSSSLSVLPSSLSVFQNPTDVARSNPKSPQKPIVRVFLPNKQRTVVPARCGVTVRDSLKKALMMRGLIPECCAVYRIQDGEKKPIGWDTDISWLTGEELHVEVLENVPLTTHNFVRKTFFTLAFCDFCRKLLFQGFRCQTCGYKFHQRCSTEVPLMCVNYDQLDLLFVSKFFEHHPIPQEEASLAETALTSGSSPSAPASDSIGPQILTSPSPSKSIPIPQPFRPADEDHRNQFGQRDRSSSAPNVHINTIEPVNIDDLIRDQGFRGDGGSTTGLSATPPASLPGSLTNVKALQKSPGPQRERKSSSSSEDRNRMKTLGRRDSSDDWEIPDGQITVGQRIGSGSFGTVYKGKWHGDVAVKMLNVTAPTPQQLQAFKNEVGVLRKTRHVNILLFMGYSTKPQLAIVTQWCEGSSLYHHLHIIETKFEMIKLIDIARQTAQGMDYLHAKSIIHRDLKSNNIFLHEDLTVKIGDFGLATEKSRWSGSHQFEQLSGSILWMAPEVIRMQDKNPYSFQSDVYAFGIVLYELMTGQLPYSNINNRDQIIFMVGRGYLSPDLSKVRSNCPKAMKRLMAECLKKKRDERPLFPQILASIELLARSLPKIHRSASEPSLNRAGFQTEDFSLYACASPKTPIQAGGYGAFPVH

| SMILES | DC50 (A375.10 cells, 24 h) | Emax [1] | Emax |
| --- | --- | --- | --- |
| Cn1nc(C2CCC(=O)NC2=O)c2ccc(C3CCN(CC(=O)N4CCC5(CC4)C[C@@H](n4cnc6ccc(Oc7c(F)ccc(NS(=O)(=O)N8CC[C@@H](F)C8)c7C#N)cc6c4=O)CO5)CC3)cc21 (stereo partly drawn) [Example 165, (3R)—N-[2-cyano-3-[3-[(3R)-8-[2-[4-[3-(2,6-dioxopiperidin-3-yl)-1-methylindazol-6-yl]piperidin-1-yl]acetyl]-1-oxa-8-azaspiro[4.5]decan-3-yl]-4-oxoquinazolin-6-yl]oxy-4-fluorophenyl]-3-fluoropyrrolidine-1-sulfonamide] | 100 nM | 17.8% | – |
| CCN(C)S(=O)(=O)Nc1ccc(F)c(Oc2ccc3ncn([C@H]4CCC5(CCN(C(=O)CN6CCC(c7ccc8c(C9CCC(=O)NC9=O)nn(C)c8c7)CC6)CC5)C4)c(=O)c3c2)c1Cl (stereo partly drawn) [Example 166, 6-[2-chloro-3-[[ethyl(methyl)sulfamoyl]amino]-6-fluorophenoxy]-3-[(3S)-8-[2-[4-[3-(2,6-dioxopiperidin-3-yl)-1-methylindazol-6-yl]piperidin-1-yl]acetyl]-8-azaspiro[4.5]decan-3-yl]-4-oxoquinazoline] | 34.5 nM | 23.5% | – |
| Cn1nc(C2CCC(=O)NC2=O)c2ccc(C3CCN(CC(=O)N4CCC5(CC4)C[C@@H](n4cnc6ccc(Oc7c(F)ccc(NS(=O)(=O)C8CCCC8)c7C#N)cc6c4=O)CO5)CC3)cc21 (stereo partly drawn) [Example 167, N-[2-cyano-3-[3-[(3R)-8-[2-[4-[3-(2,6-dioxopiperidin-3-yl)-1-methylindazol-6-yl]piperidin-1-yl]acetyl]-1-oxa-8-azaspiro[4.5]decan-3-yl]-4-oxoquinazolin-6-yl]oxy-4-fluorophenyl]cyclopentanesulfonamide] | 42.6 nM | 16.5% | – |
| CC(C)S(=O)(=O)Nc1ccc(F)c(Oc2ccc3ncn([C@H]4COC5(CCN(C(=O)CN6CCC(c7ccc8c(C9CCC(=O)NC9=O)nn(C)c8c7)CC6)CC5)C4)c(=O)c3c2)c1C#N (stereo partly drawn) [Example 168, N-[2-cyano-3-[3-[(3R)-8-[2-[4-[3-(2,6-dioxopiperidin-3-yl)-1-methylindazol-6-yl]piperidin-1-yl]acetyl]-1-oxa-8-azaspiro[4.5]decan-3-yl]-4-oxoquinazolin-6-yl]oxy-4-fluorophenyl]propane-2-sulfonamide] | 36.5 nM | 14.1% | – |
| CCN(C)S(=O)(=O)Nc1ccc(F)c(Oc2ccc3ncn([C@H]4COC5(CCN(C(=O)CN6CC(c7ccc8c(C9CCC(=O)NC9=O)nn(C)c8c7)C6)CC5)C4)c(=O)c3c2)c1C#N (stereo partly drawn) [Example 171, (3R)-3-[6-[2-cyano-3-[[ethyl(methyl)sulfamoyl]amino]-6-fluorophenoxy]-4-oxoquinazolin-3-yl]-8-[2-[3-[3-(2,6-dioxopiperidin-3-yl)-1-methylindazol-6-yl]azetidin-1-yl]acetyl]-1-oxa-8-azaspiro[4.5]decane] | 30.7 nM | 7.11% | – |
| CCN(C)S(=O)(=O)Nc1ccc(F)c(Oc2ccc3ncn([C@H]4CCC5(CCN(C(=O)CC6(O)CCN(c7ccc8c(N9CCC(=O)NC9=O)nn(C)c8c7F)CC6)CC5)C4)c(=O)c3c2)c1C#N [Example 172, 6-[2-cyano-3-[[ethyl(methyl)sulfamoyl]amino]-6-fluorophenoxy]-3-[(3S)-8-[2-[1-[3-(2,4-dioxo-1,3-diazinan-1-yl)-7-fluoro-1-methylindazol-6-yl]-4-hydroxypiperidin-4-yl]acetyl]-8-azaspiro[4.5]decan-3-yl]-4-oxoquinazoline] | 28.9 nM | 25.1% | – |
| CCN(C)S(=O)(=O)Nc1ccc(F)c(Oc2ccc3ncn([C@H]4COC5(CCN(C(=O)CC6(O)CCN(c7ccc8c(N9CCC(=O)NC9=O)nn(C)c8c7F)CC6)CC5)C4)c(=O)c3c2)c1C#N [Example 173, (3R)-3-[6-[2-cyano-3-[[ethyl(methyl)sulfamoyl]amino]-6-fluorophenoxy]-4-oxoquinazolin-3-yl]-8-[2-[1-[3-(2,4-dioxo-1,3-diazinan-1-yl)-7-fluoro-1-methylindazol-6-yl]-4-hydroxypiperidin-4-yl]acetyl]-1-oxa-8-azaspiro[4.5]decane] | 192 nM | 46% | – |
| COC1CCN(S(=O)(=O)Nc2ccc(F)c(Oc3ccc4ncn([C@H]5COC6(CCN(C(=O)CC7(O)CCN(c8cc9c(cc8F)c(N8CCC(=O)NC8=O)nn9C)CC7)CC6)C5)c(=O)c4c3)c2C#N)C1 (stereo partly drawn) [Example 175, N-[2-cyano-3-[3-[(3R)-8-[2-[1-[3-(2,4-dioxo-1,3-diazinan-1-yl)-5-fluoro-1-methylindazol-6-yl]-4-hydroxypiperidin-4-yl]acetyl]-1-oxa-8-azaspiro[4.5]decan-3-yl]-4-oxoquinazolin-6-yl]oxy-4-fluorophenyl]-3-methoxypyrrolidine-1-sulfonamide] | 31.2 nM | 31.1% | – |
| CO[C@H]1CCN(S(=O)(=O)Nc2ccc(F)c(Oc3ccc4ncn([C@H]5COC6(CCN(C(=O)CC7(O)CCN(c8cc9c(cc8F)c(N8CCC(=O)NC8=O)nn9C)CC7)CC6)C5)c(=O)c4c3)c2C#N)C1 [Example 176, (3S)—N-[2-cyano-3-[3-[(3R)-8-[2-[1-[3-(2,4-dioxo-1,3-diazinan-1-yl)-5-fluoro-1-methylindazol-6-yl]-4-hydroxypiperidin-4-yl]acetyl]-1-oxa-8-azaspiro[4.5]decan-3-yl]-4-oxoquinazolin-6-yl]oxy-4-fluorophenyl]-3-methoxypyrrolidine-1-sulfonamide] | 20.5 nM | 24.8% | – |
| CO[C@@H]1CCN(S(=O)(=O)Nc2ccc(F)c(Oc3ccc4ncn([C@H]5COC6(CCN(C(=O)CC7(O)CCN(c8cc9c(cc8F)c(N8CCC(=O)NC8=O)nn9C)CC7)CC6)C5)c(=O)c4c3)c2C#N)C1 [Example 177, (3R)—N-[2-cyano-3-[3-[(3R)-8-[2-[1-[3-(2,4-dioxo-1,3-diazinan-1-yl)-5-fluoro-1-methylindazol-6-yl]-4-hydroxypiperidin-4-yl]acetyl]-1-oxa-8-azaspiro[4.5]decan-3-yl]-4-oxoquinazolin-6-yl]oxy-4-fluorophenyl]-3-methoxypyrrolidine-1-sulfonamide] | 18 nM | 22.3% | – |
| CCN(C)S(=O)(=O)Nc1ccc(F)c(Oc2ccc3ncn(C4COC5(CCN(C(=O)CC6(O)CCN(c7cc8c(cc7F)c(N7CCC(=O)NC7=O)nn8C)CC6)CC5)C4)c(=O)c3c2N(C)C)c1C#N (stereo not drawn) [Example 179, 3-[6-[2-cyano-3-[[ethyl(methyl)sulfamoyl]amino]-6-fluorophenoxy]-5-(dimethylamino)-4-oxoquinazolin-3-yl]-8-[2-[1-[3-(2,4-dioxo-1,3-diazinan-1-yl)-5-fluoro-1-methylindazol-6-yl]-4-hydroxypiperidin-4-yl]acetyl]-1-oxa-8-azaspiro[4.5]decane] | 27.8 nM | 19.3% | – |
| CCN(C)S(=O)(=O)Nc1ccc(F)c(Oc2ccc3ncn([C@H]4COC5(CCN(C(=O)CC6CCN(c7cc8c(cc7F)c(N7CCC(=O)NC7=O)nn8C)CC6)CC5)C4)c(=O)c3c2)c1C#N [Example 180, (3R)-3-[6-[2-cyano-3-[[ethyl(methyl)sulfamoyl]amino]-6-fluorophenoxy]-4-oxoquinazolin-3-yl]-8-[2-[1-[3-(2,4-dioxo-1,3-diazinan-1-yl)-5-fluoro-1-methylindazol-6-yl]piperidin-4-yl]acetyl]-1-oxa-8-azaspiro[4.5]decane] | 9.62 nM | – | 20.6% |
